Patent US20230002374A1, “GPR52 MODULATOR COMPOUNDS” (Heptares Therapeutics Limited, priority 2019, published 2023)

Experiments:
human GPR52 [1] = molecular target: T1, human GPR52 (Homo sapiens, UniProt Q9Y2T5);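 note: HEKf cells transduced with GPR52 BacMam for 24 h, 2000 per well, exposed to compounds 30 min at 37° C with 0.5 mM IBMX, cAMP read by HTRF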
Procedure: (§1) Following BacMam infection, cells were pelleted by centrifugation (335 g, 5 min), resuspended in cell freezing medium (Sigma) and frozen at −150° C. until required. On experiment day, 25 nL GPR52 compound dilutions, prepared in DMSO, were stamped onto proxiplates (PerkinElmer) by a LabCyte ECHO acoustic dispenser. Frozen cells were thawed and resuspended in assay stimulation buffer (Cisbio) containing 0.5 mM 3-iso-butyl-1-methylxanthine (IBMX, Sigma) to achieve a density of 2000 cells per well. 10 μl cells were added to assay plates using a Multidrop Combi Reagent Dispenser (ThermoFisher) before centrifugation (335 g, 1 min). Cells were incubated with compounds at 37° C. for 30 min prior to addition of cAMP detection reagents (HiRange cAMP kit, Cisbio) which were prepared according to the manufacturer's instructions. Plates were shaken for 1 h at room temperature before reading on a PHERAstar FS plate reader (BMG Labtech) using standard HTRF settings.

human GPR52 [2] = molecular target: T1, human GPR52; assay: GPR52 Agonist Functional cAMP Assay;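 for all read-outs here: HEKf cells transduced with GPR52 BacMam for 24 h, 2000 per well, exposed to compounds 30 min at 37° C with 0.5 mM IBMX, cAMP read by HTRF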; conditions: for EC50: pEC50 average, HEKf cells infected with human GPR52 BacMam virus, cAMP HTRF, 30 min at 37° C.; for Emax: maximal response normalised to DMSO (0%) and maximal compound 7m (J. Med. Chem., 2014, 57, 5226) response (100%)
Procedure: as §1

[3] = system: subchronic PCP induced cognitive deficit; assay: Subchronic PCP-induced reversal learning deficit in rat; assay type: in vivo, female Lister Hooded rats; conditions: for reversal of subchronic PCP reversal learning deficit (percent correct responding, reversal phase): vs vehicle-treated subchronic PCP group; for effect on total number of lever presses: scPCP treated rats
Procedure: Testing was carried out in the light phase. Rats underwent operant training firstly to press the left/right lever for a food reward in the presence or absence of a visual cue, and then to respond to the opposite contingency. The reversal learning task was introduced as follows. On the day before each reversal task session, a full 30-minute operant training session was conducted in order to ensure stable responding. In the initial task, animals were first exposed to a five-minute period during which the contingency (cue position relative to active lever) was the same as for the operant training session. This was followed by a 2-minute time-out period, which was signalled by the house-light being turned off. In the subsequent 5-minute period (reversal task), the contingency was reversed. Responses made on the correct and incorrect levers were recorded. Animals undertook several of these reversal learning task sessions before the beginning of the drug studies in order to ensure that they attained a stable level of performance in both phases of the task. […] At this stage, training ceased and rats were treated with PCP (2 mg/kg, IP or vehicle 0.9% saline, IP) for 7 days followed by at least 7-days washout period.
In the initial phase, the reward contingency was the same as the previous day and in the reversal phase the reward contingency was reversed.
Data are presented as mean total number of lever presses (+SEM) and percent correct response (+SEM). […] Statistical significance was assumed when P<0.05 and was determined as follows: one-way ANOVA (IBM SPSS Statistics 22) was performed in order to detect main effect of drug treatment in the initial and reversal tasks. Where a significant effect was detected, a post-hoc LSD t-test was performed in order to compare treatment groups versus the appropriate control in the reversal phase of the test.
Data are shown as mean±s.e.m. % correct responding (n=8-10) and were analysed by ANOVA and post-hoc Student's t-test.
Data are shown as the mean total number of lever presses, correct responses are shown as clear bars and incorrect responses are shown as shaded bars (n=8-10).

[4] = Brain penetration in rat (unbound brain-to-plasma ratio, IV); assay type: in vivo, male Sprague-Dawley rats; conditions: male, Sprague-Dawley, brain and plasma, 1 mg/kg, 10 min post-dose, n = 3
Procedure: Plasma and brain exposure were evaluated to assess the brain penetration of Example 1, following IV administration. Unbound brain-to-plasma ratio (Kp,uu) was calculated, as detailed in Table 5, following experimental determination of binding in rat plasma and brain homogenate. Methods: For brain penetration assessment, male Sprague-Dawley rats (n=3) were administered a single 1 mg/kg dose (formulated in 10% DMAC+10% Solutol HS15+80% saline) via the IV route. After 10 min post-dose, animals were sacrificed and brains extracted, homogenised with 2 volumes (w/v) of 50 mM sodium phosphate buffer (pH 7.4), and analysed by LC-MS/MS. Blood samples were removed at the same time point via tail vein bleed, centrifuged and the plasma analysed by LC-MS/MS. To permit calculation of unbound brain-to-plasma ratio (Kp,uu), test compound binding in rat plasma and brain homogenate was performed, using Rapid Equilibrium Dialysis (RED). […] Fraction unbound (Fu) in plasma and brain was calculated using the following formula, then used to correct total plasma and brain concentrations to derive the Kp,uu: Fraction bound=(Total plasma or brain ratio)−(Total buffer ratio)/Total plasma or brain ratio Fraction unbound (Fu,brain or plasma)=1−Fraction bound For correction of dilution in brain binding assay: Undiluted Fu,brain=(1/dilution factor)/((1/Fv diluted))−1)+(1/dilution factor) Where dilution factor=4

[5] = Pharmacokinetic profiling in rat (IV and PO); assay type: in vivo, male Sprague-Dawley rats; conditions: male, Sprague-Dawley, plasma, n = 3, mean ± standard deviation
Procedure: The pharmacokinetic profiles of Example 1 were assessed in male Sprague-Dawley rats via intravenous (IV) and oral (per os, PO) routes of delivery. Pharmacokinetic data (mean values±standard deviation) for Example 1 of the invention are detailed in Table 5. Methods: For pharmacokinetic analysis, groups of three male Sprague-Dawley rats, ranging in weight between 200 and 230 g, were administered a single dose of Example 1 via IV or PO route, using the doses, dose volumes and vehicles specified in Table 5. […] WinNonlin v8.2 statistics software (Pharsight Corporation, California, USA) was used to generate pharmacokinetic parameters using non-compartmental analysis.

[6] = system: D-amphetamine-induced hyperlocomotor response; assay: Amphetamine-induced locomotor activity in rat; assay type: in vivo, male Sprague-Dawley rats; conditions: 10 mg/kg PO, 60 min before D-amphetamine SC; activity over two hours
Procedure: The rat amphetamine-induced locomotor hyperactivity test is used to model the enhanced mesolimbic dopaminergic activity thought to contribute to psychosis in humans. […] Male Sprague-Dawley rats (200-250 g) were housed in groups with a 12 h light/dark cycle (lights on at 07.00), at an ambient temperature of 21±2° C. and with standard pelleted diet and water ad libitum. Testing was carried out in the light phase. On the day of the experiment, animals were habituated to the locomotor cages for a 60-minute period.
Locomotor activity was assessed for a two hour period after D-amphetamine treatment. Data are back-transformed means, adjusted for differences between treatment groups in activity during the 30 minutes prior to treatment with test compound or vehicle (n=10-12). Analysis was by general linear model with treatment, cohort and rack as factors. SEMs were calculated from the residuals of the statistical model.
Significant differences vs D-amphetamine are represented as *p<0.05, **p<0.01, ***p<0.001.

[7] = 6 mg/kg IP, 60 min prior to testing

T1 sequence (Q9Y2T5 whole entry): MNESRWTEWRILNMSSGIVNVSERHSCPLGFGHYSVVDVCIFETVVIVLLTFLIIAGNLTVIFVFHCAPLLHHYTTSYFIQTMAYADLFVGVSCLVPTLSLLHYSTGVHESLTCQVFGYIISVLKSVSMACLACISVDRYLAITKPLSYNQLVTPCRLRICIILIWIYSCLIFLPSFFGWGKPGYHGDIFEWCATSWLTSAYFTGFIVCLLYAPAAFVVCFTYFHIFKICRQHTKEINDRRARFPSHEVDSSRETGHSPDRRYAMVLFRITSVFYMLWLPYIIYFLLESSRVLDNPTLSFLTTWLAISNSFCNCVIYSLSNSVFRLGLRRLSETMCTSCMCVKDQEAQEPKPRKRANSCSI

Row | Compound | Emax (%) (human GPR52 [1]) | EC50 (human GPR52 [2]) | other results
1 | Cc1nn(-c2ccnc(C(O)c3cc(F)cc(C(F)(F)F)c3)c2)c2c1C(=O)NCC2 (single isomer, unassigned) [117 Isomer 2, 1-(2-((3-fluoro-5-(trifluoromethyl)phenyl)(hydroxy)methyl)pyridin-4-yl)-3-methyl-1,5,6,7-tetrahydro-4H-pyrazolo[4,3-c]pyridin-4-one] | 103% | 0.0251 µM | –
2 | Cc1nn(-c2cc(C(O)c3cc(F)cc(C(F)(F)F)c3)ccn2)c2c1C(=O)NCC2 (single isomer, unassigned) [118 Isomer 2, 1-(4-((3-fluoro-5-(trifluoromethyl)phenyl)(hydroxy)methyl)pyridin-2-yl)-3-methyl-1,5,6,7-tetrahydro-4H-pyrazolo[4,3-c]pyridin-4-one] | 101% | 0.00794 µM | –
3 | O=C1NCCc2c1cnn2-c1ccnc(C(O)c2cc(F)cc(C(F)(F)F)c2)c1 (single isomer, unassigned) [Example 36 Isomer 1, 1-(2-((3-fluoro-5-(trifluoromethyl)phenyl)(hydroxy)methyl)pyridin-4-yl)-1,5,6,7-tetrahydro-4H-pyrazolo[4,3-c]pyridin-4-one] | 72% | 1.58 µM | –
4 | O=C1NCCc2c1cnn2-c1ccnc(C(O)c2cc(F)cc(C(F)(F)F)c2)c1 (single isomer, unassigned) [Example 36 Isomer 2, 1-(2-((3-fluoro-5-(trifluoromethyl)phenyl)(hydroxy)methyl)pyridin-4-yl)-1,5,6,7-tetrahydro-4H-pyrazolo[4,3-c]pyridin-4-one] | 94% | 0.251 µM | –
5 | CC1Cc2c(cnn2-c2ccnc(Cc3cc(F)cc(C(F)(F)F)c3)c2)C(=O)N1 (single isomer, unassigned) [Example 40 Isomer 2, 1-(2-(3-fluoro-5-(trifluoromethyl)benzyl)pyridin-4-yl)-6-methyl-1,5,6,7-tetrahydro-4H-pyrazolo[4,3-c]pyridin-4-one] | 83% | 0.126 µM | –
6 | O=C1NCCc2c1cnn2-c1ccnc(Cc2cc(F)cc(C(F)(F)F)c2)c1 [Example 1, 1-(2-(3-fluoro-5-(trifluoromethyl)benzyl)pyridin-4-yl)-1,5,6,7-tetrahydro-4H-pyrazolo[4,3-c]pyridin-4-one] | – | – | reversal of subchronic PCP reversal learning deficit (percent correct responding, reversal phase) ([3]; 10 mg/kg PO, 2 h prior to testing): significantly (P<0.05−P<0.001) reversed the deficit; reversal of subchronic PCP reversal learning deficit (percent correct responding, reversal phase) ([3]; 30 mg/kg PO, 2 h prior to testing): significantly (P<0.05−P<0.001) reversed the deficit; effect on total number of lever presses ([3]; 3, 10 and 30 mg/kg PO, 2 h prior to testing): no significant effects; Kp uu at 10 min [4]: 0.35 ± 0.03; clearance ([5]; Rat IV, 1 mg/kg): 16.4 ± 1 mL/min/kg; bioavailability ([5]; Rat PO, 3 mg/kg): 40.4 ± 6%; reduction of the D-amphetamine-induced hyperlocomotor response [6]: reached statistical significance at 10 mg/kg
7 | N#Cc1nn(-c2ccnc(Cc3cc(F)cc(C(F)(F)F)c3)c2)c2c1C(=O)NCC2 [Example 115, 1-(2-(3-fluoro-5-(trifluoromethyl)benzyl)pyridin-4-yl)-4-oxo-4,5,6,7-tetrahydro-1H-pyrazolo[4,3-c]pyridine-3-carbonitrile] | – | 0.0251 µM | Emax (human GPR52 [2]): 91%
8 | O=C1NCCc2c1c(C(F)(F)F)nn2-c1ccnc(Cc2cc(F)cc(C(F)(F)F)c2)c1 [Example 116, 1-(2-(3-fluoro-5-(trifluoromethyl)benzyl)pyridin-4-yl)-3-(trifluoromethyl)-1,5,6,7-tetrahydro-4H-pyrazolo[4,3-c]pyridin-4-one] | – | 0.00501 µM | Emax (human GPR52 [2]): 95%
9 | Cc1cc(-n2nc(Cc3cc(F)cc(C(F)(F)F)c3)nc2C)ccc1C(N)=O [FTBMT, reference compound] | – | – | reduction of the D-amphetamine-induced hyperlocomotor response [6]: showed a trend towards a reduced D-amphetamine-induced hyperlocomotor response but statistical significance was not reached
10 | Oc1cc2c(cc1O)C(c1ccccc1)CNCC2 (stereo not drawn) [SKF-38393, reference compound] | – | – | effect on total number of lever presses [3, 7]: no significant effects; reversal of subchronic PCP reversal learning deficit (percent correct responding, reversal phase) [3, 7]: significantly (P<0.05−P<0.001) reversed the deficit
